Measurements taken from ChEMBL document CHEMBL5465560, “Selectivity Literature for EUbOPEN Chemogenomic Library” (2024).

Key:
[1] = target: Casein kinase I isoform epsilon (Homo sapiens, UniProt P49674); assay: Selectivity interaction (Kinase panel (Z-LYTE Assay)) EUB0001632a CSNK1E; conditions: at 10 µM
[2] = target: Homeodomain-interacting protein kinase 2 (Homo sapiens, UniProt Q9H2X6); assay: Selectivity interaction (Kinase panel (Z-LYTE Assay)) EUB0001632a HIPK2; conditions: at 10 µM
[3] = target: 5-hydroxytryptamine receptor 1B (Homo sapiens) (UniProt P28222); assay: Selectivity interaction (Panel of non-epigenetic targets (kinases, GPCRs, ion channels, and transporters, Eurofins) ) EUB0000271b HTR1B; conditions: at 1 µM
[4] = target: Cyclin-dependent kinase-like 1 (Homo sapiens) (UniProt Q00532); assay: Selectivity interaction (KinomeScan (DiscoverX)) EUB0001049a CDKL1; conditions: at 1 µM
[5] = target: T1, Beta-adrenergic receptor kinase 1 (Homo sapiens) (UniProt P25098); assay: Selectivity interaction (KinomeScan (DiscoverX)) EUB0001049a ADRBK1; conditions: at 1 µM
T1 sequence (whole entry): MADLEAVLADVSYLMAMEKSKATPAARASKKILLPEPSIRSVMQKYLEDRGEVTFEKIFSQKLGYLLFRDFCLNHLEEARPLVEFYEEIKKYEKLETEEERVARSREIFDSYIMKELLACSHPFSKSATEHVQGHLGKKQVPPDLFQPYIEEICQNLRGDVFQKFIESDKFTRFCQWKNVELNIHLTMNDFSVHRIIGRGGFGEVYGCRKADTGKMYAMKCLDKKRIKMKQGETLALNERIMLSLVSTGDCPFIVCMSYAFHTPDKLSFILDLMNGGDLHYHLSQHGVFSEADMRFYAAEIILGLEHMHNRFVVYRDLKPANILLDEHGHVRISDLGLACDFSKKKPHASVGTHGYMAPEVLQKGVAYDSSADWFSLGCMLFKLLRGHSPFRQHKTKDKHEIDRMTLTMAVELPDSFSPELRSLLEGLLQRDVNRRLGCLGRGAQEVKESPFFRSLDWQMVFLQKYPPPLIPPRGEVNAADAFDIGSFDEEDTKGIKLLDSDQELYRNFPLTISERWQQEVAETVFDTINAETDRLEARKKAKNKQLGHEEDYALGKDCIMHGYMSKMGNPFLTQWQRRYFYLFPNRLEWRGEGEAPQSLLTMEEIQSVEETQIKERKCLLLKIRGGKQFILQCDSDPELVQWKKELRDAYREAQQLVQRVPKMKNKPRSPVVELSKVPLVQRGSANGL

Ephrin type-B receptor 4 = Ephrin type-B receptor 4 (Homo sapiens, UniProt P54760); assay: Selectivity interaction (Kinase panel (33PanQinase(R) Activity Assay)) EUB0000877a EPHB4
[6] = target: T2, Dual specificity mitogen-activated protein kinase kinase 7 (Homo sapiens) (UniProt O14733); assay: Selectivity interaction (KinomeScan (DiscoverX)) EUB0001619a MAP2K7; conditions: at 1 µM
T2 sequence (whole entry): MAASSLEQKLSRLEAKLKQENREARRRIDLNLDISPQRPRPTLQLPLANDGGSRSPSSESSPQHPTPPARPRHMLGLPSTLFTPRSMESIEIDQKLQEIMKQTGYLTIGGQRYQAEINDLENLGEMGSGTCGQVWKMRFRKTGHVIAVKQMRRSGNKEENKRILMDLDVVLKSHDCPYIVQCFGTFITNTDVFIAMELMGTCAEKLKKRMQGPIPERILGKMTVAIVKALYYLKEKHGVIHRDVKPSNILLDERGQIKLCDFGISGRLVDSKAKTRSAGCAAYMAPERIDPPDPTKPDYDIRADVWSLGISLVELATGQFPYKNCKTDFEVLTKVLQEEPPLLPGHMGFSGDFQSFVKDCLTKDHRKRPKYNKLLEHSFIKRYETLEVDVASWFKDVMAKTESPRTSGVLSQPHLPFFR

[7] = target: T3, Serine/threonine-protein kinase tousled-like 1 (Homo sapiens) (UniProt Q9UKI8); assay: Selectivity interaction (KinomeScan (DiscoverX)) EUB0000618a TLK1; conditions: at 10 µM
T3 sequence (whole entry): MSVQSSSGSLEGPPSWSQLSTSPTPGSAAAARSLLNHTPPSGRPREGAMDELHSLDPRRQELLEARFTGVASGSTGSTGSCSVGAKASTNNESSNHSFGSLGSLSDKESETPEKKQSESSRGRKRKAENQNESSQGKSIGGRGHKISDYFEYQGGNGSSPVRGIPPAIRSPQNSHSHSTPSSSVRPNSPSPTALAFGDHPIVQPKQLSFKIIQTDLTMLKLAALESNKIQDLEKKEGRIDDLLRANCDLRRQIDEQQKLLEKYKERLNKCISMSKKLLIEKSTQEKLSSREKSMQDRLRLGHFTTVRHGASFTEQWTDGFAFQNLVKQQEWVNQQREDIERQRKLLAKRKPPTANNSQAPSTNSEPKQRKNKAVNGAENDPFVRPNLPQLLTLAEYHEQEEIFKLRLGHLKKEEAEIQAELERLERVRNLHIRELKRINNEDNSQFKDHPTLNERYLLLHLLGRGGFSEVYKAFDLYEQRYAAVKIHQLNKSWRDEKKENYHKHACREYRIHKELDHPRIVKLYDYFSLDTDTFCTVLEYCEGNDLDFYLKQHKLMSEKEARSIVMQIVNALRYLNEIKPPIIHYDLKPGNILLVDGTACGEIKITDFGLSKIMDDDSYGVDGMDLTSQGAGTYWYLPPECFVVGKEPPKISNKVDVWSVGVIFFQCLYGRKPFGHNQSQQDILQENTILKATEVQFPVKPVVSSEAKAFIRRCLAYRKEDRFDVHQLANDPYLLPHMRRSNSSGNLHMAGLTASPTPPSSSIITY

[8] = target: Dual specificity mitogen-activated protein kinase kinase 2 (Homo sapiens) (UniProt P36507); assay: Selectivity interaction (ActivX KiNativ screen (kinase selectivity in THP-1 cell lysates)) EUB0000639a MAP2K2; format: subcellular; conditions: lysate, at 5 µM
[9] = target: Mitogen-activated protein kinase kinase kinase kinase 1 (Homo sapiens) (UniProt Q92918); assay: Selectivity interaction (ActivX KiNativ screen (kinase selectivity in THP-1 cell lysates)) EUB0000639a MAP4K1; format: subcellular; conditions: lysate, at 0.2 µM
[10] = target: Dual specificity testis-specific protein kinase 1 (Homo sapiens) (UniProt Q15569); assay: Selectivity interaction (KinomeScan (DiscoverX)) EUB0000092b TESK1; conditions: at 10 µM
[11] = target: Protein kinase C delta type (Homo sapiens) (UniProt Q05655); assay: Selectivity interaction (Ambit KINOMEscan and KiNATiv profiling in Jurkat cells) EUB0000090b PRKCD; format: cell-based; conditions: at 1 µM
Protein kinase C delta type (Homo sapiens), sequence (Q05655 whole entry, looked up): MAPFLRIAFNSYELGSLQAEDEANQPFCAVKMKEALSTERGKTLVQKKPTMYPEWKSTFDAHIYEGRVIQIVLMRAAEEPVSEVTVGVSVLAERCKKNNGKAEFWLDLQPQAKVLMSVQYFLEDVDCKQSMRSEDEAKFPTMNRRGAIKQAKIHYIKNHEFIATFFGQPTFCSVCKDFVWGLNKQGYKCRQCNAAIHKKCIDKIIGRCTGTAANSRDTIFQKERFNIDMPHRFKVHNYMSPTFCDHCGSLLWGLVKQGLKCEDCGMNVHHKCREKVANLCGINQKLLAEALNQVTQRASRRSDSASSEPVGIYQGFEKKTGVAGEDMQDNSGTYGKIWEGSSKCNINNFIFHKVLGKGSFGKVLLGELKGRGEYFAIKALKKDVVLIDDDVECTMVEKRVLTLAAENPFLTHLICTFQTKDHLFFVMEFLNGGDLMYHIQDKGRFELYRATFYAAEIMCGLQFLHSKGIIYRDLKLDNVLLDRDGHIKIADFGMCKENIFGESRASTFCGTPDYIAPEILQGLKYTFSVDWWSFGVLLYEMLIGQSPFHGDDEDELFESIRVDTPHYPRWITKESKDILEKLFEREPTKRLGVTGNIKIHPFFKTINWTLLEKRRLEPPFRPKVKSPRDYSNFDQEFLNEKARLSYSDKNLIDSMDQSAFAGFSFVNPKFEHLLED

Dual specificity testis-specific protein kinase 1 (Homo sapiens), sequence (Q15569 whole entry, looked up): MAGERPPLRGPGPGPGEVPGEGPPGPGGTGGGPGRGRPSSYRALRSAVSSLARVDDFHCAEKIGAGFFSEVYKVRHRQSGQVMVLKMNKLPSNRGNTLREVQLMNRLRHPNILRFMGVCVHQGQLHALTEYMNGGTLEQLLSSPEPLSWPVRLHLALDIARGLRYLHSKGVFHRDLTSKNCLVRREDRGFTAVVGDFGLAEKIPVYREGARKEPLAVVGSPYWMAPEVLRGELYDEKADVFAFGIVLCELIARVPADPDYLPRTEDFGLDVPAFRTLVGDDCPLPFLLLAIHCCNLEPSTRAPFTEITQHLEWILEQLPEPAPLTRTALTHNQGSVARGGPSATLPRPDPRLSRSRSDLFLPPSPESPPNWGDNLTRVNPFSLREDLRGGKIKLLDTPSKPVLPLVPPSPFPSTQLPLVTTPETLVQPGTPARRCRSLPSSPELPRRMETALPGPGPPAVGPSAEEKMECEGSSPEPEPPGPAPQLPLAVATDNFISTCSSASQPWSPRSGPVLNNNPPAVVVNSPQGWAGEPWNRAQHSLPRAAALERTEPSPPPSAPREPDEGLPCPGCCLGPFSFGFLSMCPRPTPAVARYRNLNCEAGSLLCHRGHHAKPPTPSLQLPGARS
Cyclin-dependent kinase-like 1 (Homo sapiens), sequence (Q00532 whole entry): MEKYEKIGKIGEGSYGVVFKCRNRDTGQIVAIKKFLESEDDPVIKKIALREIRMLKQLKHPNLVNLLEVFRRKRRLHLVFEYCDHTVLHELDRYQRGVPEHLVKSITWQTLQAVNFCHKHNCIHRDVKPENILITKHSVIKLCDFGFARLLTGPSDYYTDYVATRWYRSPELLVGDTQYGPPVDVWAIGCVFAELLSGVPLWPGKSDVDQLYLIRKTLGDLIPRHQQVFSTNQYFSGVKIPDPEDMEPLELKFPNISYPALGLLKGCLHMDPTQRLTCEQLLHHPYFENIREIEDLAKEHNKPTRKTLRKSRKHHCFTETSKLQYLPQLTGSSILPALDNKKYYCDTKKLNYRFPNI
Ephrin type-B receptor 4, sequence (P54760 whole entry): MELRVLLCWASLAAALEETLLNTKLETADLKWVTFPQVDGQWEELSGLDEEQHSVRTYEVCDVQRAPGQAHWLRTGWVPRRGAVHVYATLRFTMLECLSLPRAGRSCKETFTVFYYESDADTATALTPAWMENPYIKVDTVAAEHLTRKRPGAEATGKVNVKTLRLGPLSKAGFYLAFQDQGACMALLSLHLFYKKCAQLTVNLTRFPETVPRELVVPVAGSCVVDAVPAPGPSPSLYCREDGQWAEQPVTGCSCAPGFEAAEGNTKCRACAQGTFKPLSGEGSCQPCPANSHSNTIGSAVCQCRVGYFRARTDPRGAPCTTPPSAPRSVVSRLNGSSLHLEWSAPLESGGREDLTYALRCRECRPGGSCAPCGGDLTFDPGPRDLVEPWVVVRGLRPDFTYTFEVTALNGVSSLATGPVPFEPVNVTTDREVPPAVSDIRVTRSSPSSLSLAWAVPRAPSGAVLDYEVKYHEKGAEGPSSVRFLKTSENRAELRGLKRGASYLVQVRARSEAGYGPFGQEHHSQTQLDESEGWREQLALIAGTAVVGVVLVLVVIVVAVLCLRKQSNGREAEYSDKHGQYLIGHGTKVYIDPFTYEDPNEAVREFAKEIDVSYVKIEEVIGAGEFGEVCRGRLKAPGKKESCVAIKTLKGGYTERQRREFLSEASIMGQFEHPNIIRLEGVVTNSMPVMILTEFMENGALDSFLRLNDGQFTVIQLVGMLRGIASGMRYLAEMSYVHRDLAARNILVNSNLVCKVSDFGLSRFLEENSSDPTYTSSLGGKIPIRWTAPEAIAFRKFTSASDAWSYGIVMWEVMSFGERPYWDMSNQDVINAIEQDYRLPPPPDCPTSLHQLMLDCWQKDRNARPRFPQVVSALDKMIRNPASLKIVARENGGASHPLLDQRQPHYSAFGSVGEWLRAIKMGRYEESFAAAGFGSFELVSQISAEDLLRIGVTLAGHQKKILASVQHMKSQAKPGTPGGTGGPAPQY
Dual specificity mitogen-activated protein kinase kinase 2 (Homo sapiens), sequence (P36507 whole entry): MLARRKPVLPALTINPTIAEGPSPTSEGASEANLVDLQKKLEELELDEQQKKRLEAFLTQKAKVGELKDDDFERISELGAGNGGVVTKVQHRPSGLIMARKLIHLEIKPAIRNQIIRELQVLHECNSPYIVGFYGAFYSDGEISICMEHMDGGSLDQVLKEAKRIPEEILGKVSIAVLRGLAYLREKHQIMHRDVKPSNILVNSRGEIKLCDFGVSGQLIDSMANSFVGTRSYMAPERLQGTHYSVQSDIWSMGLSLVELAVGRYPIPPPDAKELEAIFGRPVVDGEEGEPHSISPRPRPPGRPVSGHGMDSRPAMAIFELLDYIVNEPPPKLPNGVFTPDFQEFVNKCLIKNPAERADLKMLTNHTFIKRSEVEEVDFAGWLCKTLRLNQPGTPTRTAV
Casein kinase I isoform epsilon, sequence (P49674 whole entry, looked up, canonical isoform): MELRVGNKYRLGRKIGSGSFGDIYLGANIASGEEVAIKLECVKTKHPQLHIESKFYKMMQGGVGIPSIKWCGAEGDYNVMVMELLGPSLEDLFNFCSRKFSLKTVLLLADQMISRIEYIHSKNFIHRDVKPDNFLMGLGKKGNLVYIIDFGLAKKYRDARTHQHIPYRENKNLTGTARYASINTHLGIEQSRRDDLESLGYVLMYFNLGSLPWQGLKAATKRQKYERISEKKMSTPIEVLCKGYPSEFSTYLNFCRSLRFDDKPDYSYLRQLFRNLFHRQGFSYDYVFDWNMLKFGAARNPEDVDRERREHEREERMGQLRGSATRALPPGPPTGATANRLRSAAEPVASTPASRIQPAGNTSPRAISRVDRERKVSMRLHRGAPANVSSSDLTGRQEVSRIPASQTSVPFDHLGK
Homeodomain-interacting protein kinase 2, sequence (Q9H2X6 whole entry, looked up): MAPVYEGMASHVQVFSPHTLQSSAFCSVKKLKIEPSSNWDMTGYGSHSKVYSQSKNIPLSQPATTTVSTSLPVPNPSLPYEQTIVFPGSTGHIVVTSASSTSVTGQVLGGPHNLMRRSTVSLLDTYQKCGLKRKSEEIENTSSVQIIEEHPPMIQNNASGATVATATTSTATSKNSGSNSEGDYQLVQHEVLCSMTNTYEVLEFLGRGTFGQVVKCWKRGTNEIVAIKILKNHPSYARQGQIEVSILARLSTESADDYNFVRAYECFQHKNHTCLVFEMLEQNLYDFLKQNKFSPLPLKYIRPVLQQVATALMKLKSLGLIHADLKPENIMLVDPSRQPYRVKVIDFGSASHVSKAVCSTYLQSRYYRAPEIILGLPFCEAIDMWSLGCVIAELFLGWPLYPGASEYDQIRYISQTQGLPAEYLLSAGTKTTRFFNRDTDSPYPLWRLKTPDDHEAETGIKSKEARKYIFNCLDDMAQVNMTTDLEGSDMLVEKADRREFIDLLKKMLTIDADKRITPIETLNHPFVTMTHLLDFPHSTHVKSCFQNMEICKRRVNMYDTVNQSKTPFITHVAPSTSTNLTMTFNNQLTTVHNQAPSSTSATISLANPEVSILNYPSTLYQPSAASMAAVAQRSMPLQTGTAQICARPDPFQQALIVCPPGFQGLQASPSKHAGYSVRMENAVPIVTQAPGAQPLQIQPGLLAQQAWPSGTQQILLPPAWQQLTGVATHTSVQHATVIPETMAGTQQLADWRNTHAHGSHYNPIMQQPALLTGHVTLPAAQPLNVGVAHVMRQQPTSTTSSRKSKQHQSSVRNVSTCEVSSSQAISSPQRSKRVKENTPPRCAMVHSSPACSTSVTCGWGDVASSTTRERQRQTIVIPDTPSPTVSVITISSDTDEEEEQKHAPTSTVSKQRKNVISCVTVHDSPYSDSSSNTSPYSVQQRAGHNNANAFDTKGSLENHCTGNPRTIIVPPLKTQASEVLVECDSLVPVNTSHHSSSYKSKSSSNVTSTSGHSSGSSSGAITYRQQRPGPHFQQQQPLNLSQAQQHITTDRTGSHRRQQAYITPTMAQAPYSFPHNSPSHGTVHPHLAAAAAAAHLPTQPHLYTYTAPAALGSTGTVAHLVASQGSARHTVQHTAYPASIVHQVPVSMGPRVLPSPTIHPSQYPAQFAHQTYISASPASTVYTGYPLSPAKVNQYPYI
5-hydroxytryptamine receptor 1B (Homo sapiens), sequence (P28222 whole entry): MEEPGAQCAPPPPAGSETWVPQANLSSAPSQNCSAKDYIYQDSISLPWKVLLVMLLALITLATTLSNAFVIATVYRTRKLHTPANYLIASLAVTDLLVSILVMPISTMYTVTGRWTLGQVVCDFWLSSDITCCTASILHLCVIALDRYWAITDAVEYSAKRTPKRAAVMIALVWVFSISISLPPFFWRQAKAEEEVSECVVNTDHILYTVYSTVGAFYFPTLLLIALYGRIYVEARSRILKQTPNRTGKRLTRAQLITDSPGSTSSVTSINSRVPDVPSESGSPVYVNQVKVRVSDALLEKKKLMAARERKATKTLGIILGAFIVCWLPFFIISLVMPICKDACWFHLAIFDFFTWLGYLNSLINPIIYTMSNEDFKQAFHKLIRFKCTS

In the case of `Cn1cc(-n2cnc3c(NCc4nc5cc(Cl)c(Cl)cc5[nH]4)nc(N4CCOCC4)nc32)cn1`, the % of control [1] is reported as 48.9% and the % of control [2] is reported as 5.72%.

Compound `Cc1cc(C)cc([C@@H]2c3cc(C)ccc3NC(=O)CN2C(=O)c2ccc(Br)s2)c1` has a % of inhibition [3] of 6%.

In the case of `COc1cc(Nc2nc(C)cc(-c3cnn4nc(OC)ccc34)n2)cc(C(F)(F)F)c1`, the % of control [4] is reported as 73% and the % of control [5] is reported as 100%.

`CCC(=O)N1CC[C@H](Nc2ncnc3c2CN(c2cnc(OC)c(C(F)(F)F)c2)CC3)C1` [LENIOLISIB] was tested, and the IC50 (Ephrin type-B receptor 4) was > 10 µM.

`N#Cc1cccc(-c2c[nH]c3ncnc(N4CCOCC4)c23)c1` was tested, and the % of control [6] was 80%.

In the case of `O[C@H]1CC[C@H](Nc2ncc3nc(Nc4c(F)cc(F)cc4F)n([C@H]4CCOC4)c3n2)CC1`, the % of control [7] is reported as 50%.

With `CC[C@@H]1[C@H](F)C(=O)N[C@@H]1COc1nccc2cc(C(N)=O)c(OC)cc12` [ZIMLOVISERTIB] the % of inhibition [8] was -10.6% and the % of inhibition [9] was -15.1%.

`CCC(=O)N1CCN(c2ccc(-n3c(=O)ccc4cnc5ccc(-c6cnc7ccccc7c6)cc5c43)cc2C(F)(F)F)CC1` gave a % of control [10] of 58%.

With `CN(C)C/C=C/C(=O)Nc1ccc(C(=O)N2CCCC(Nc3ncc(Cl)c(-c4c[nH]c5ccccc45)n3)C2)cc1` (configuration not stated) the % of control [11] was 75%.
